The source of these data is patent publication US20240425518A1, “N-MACROCYCLIC AMIDE COMPOUNDS, PREPARATION METHODS THEREOF AND APPLICATIONS THEREOF AS MEDICAMENTS” (Chengdu FANXI Biopharma Co., Ltd., priority 2023, published 2024).

The conditions of series [1]: from C=CCOCc1cc(NC(=O)OC(C)(C)C)cc(Nc2nccc(-c3cccc(COCC=C)c3)n2)c1; rcm bond; Zhan Catalyst 1B; dichloromethane; 6.66 mM; 50.0 °C; 3.0 h.
In another series the target is T1, Ab1 (h) (Homo sapiens, UniProt P00519).
T1 construct: purchased Eurofins
T1 sequence (P00519 whole entry): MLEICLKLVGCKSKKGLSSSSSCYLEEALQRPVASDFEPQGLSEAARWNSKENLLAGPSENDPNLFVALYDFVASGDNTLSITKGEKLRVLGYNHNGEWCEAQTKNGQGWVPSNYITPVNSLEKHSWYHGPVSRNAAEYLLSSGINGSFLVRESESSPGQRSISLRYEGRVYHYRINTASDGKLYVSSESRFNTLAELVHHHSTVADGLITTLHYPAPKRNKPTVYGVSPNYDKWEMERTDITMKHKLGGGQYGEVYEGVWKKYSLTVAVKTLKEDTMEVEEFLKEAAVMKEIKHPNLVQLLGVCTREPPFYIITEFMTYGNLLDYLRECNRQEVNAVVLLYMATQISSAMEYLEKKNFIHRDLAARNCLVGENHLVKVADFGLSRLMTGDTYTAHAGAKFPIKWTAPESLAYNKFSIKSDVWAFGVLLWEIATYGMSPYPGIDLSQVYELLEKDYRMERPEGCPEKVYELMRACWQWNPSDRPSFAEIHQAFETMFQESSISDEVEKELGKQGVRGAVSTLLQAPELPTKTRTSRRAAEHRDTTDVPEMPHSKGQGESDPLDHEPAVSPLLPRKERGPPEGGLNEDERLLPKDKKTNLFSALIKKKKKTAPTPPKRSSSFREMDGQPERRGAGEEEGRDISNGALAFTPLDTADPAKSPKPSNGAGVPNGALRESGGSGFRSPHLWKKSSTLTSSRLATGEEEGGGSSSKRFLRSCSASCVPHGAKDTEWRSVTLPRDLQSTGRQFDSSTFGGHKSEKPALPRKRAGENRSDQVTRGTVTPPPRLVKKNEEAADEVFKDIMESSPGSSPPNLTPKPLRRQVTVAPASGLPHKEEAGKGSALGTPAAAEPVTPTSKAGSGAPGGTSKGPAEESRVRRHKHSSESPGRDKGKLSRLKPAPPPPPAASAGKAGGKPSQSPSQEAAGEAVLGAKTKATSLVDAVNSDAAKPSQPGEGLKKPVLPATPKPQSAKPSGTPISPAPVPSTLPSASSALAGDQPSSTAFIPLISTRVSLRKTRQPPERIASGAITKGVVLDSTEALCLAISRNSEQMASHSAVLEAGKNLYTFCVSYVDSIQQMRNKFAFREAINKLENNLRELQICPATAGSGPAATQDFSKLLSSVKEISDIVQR
In words: Radioisotope labeling kinase assay (Eurofins), Ab1. As to conditions: 1 μM compound; read-out: Inhibitory activity per unit concentration/Activity % Ab1 (h). It counts as biochemical. As for the experimental part:
(§1) An activity to a human recombinant protein kinase of a series of compounds was determined by a radioisotope labeling method, which was provided by Eurofins Company. A compound to be detected was mixed with a corresponding protein kinase buffer (20 mM propyl sulfonate (MOPS, […].), 1 mM EDTA, 0.10 β-mercaptoethanol, 0.010 Brij-35, […], and 1 mg/mL BSA), the mixture was added into a reaction system (100 μM reaction substrate […], 8 mM MOPS with a pH value of 7.0, 10 mM MgAcetate, 0.2 mM EDTA, and a certain concentration of γ-^33P-ATP). After adding an MgATP composite solution, the reaction was started at room temperature for 40 minutes, and the reaction was terminated by adding 5 μl of […] solution. Then, 10 μl of reaction solution was dropwise added onto a filter and washed with 75 mM phosphoric acid solution for three times, 5 minutes each time, then washed with methanol once again, and dried and subjected to scintillation counting.

Another series addresses T2, BTK (h) (Homo sapiens, UniProt Q06187).
T2 construct: purchased Eurofins
In words: Radioisotope labeling kinase assay (Eurofins), BTK. As to conditions: 1 μM compound; read-out: Inhibitory activity per unit concentration/Activity % BTK (h). It counts as biochemical. How it is done:
as §1

The next series addresses T3, Flt3 (D835Y) (h) (Homo sapiens, UniProt P36888, D835Y).
T3 construct: purchased Eurofins
T3 sequence (P36888 27-993 D835Y): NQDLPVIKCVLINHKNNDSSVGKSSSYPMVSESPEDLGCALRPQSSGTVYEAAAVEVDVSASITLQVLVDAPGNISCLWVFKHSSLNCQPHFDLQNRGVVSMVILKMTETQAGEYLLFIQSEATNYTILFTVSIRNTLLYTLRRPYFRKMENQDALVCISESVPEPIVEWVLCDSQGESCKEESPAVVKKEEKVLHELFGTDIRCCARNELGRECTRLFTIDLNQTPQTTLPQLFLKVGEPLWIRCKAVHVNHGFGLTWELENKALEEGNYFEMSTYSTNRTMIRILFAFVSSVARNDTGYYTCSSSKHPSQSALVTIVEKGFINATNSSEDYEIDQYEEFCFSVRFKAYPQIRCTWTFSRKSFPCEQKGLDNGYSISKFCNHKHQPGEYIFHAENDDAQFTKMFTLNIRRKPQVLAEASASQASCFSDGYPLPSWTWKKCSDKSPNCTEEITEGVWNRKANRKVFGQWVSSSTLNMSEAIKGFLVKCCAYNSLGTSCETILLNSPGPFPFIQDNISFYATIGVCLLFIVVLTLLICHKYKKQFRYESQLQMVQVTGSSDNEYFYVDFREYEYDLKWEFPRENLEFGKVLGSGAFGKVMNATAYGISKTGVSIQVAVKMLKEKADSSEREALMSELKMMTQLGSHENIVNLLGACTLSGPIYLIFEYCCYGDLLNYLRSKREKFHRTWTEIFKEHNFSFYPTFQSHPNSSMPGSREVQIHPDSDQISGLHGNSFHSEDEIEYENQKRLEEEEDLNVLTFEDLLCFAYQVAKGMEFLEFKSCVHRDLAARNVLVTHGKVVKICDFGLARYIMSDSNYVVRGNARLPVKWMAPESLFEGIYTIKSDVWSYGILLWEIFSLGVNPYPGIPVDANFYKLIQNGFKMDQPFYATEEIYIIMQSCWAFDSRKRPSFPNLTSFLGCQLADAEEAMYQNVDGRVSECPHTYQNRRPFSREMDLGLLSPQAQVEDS
In words: Radioisotope labeling kinase assay (Eurofins), Flt3 (D835Y). It counts as biochemical. As to conditions: 1 μM compound; read-out: Inhibitory activity per unit concentration/Activity % Flt3 (D835Y) (h). As for the experimental part: as §1

The next series deals with T4, Flt3 (h) (Homo sapiens, UniProt P36888).
T4 construct: purchased Eurofins
T4 sequence (P36888 27-993): T3 sequence (P36888 27-993 D835Y) with Y809D
In words: Radioisotope labeling kinase assay (Eurofins), Flt3. It counts as biochemical. As to conditions: 1 μM compound; read-out: Inhibitory activity per unit concentration/Activity % Flt3 (h). As for the experimental part:
as §1

Another series has as its target T5, JAK3 (h) (Homo sapiens, UniProt P52333).
T5 construct: purchased Eurofins
T5 sequence (P52333 1-1124): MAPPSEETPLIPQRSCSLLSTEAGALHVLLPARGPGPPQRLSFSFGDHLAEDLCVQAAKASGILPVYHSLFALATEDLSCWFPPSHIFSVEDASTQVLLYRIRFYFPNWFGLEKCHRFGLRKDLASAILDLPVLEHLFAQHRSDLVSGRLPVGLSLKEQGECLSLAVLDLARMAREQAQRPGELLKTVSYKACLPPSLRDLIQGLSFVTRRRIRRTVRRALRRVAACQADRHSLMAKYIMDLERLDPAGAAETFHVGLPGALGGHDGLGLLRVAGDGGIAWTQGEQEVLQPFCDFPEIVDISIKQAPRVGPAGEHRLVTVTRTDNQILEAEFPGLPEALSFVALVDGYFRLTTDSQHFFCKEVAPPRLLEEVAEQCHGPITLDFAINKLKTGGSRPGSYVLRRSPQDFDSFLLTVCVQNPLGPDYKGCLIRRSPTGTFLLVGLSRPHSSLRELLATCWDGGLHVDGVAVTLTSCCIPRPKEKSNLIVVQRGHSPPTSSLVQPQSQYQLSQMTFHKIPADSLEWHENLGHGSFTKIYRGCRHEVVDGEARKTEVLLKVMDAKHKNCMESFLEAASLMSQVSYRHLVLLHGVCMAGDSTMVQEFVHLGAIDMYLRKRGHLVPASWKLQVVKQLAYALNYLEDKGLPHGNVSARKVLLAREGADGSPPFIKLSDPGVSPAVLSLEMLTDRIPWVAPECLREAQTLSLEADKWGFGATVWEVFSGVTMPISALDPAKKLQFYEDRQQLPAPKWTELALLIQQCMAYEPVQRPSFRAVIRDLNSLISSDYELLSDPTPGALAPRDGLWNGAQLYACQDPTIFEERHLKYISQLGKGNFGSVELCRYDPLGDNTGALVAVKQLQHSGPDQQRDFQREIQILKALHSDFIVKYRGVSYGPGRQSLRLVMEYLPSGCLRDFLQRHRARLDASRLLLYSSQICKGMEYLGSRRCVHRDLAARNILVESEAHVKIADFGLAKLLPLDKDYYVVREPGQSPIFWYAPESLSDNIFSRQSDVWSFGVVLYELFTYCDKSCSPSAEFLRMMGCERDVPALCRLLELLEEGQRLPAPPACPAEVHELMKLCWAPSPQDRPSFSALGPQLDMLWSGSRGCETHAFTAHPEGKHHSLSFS
In words: Radioisotope labeling kinase assay (Eurofins), JAK3. It counts as biochemical. As to conditions: 1 μM compound; read-out: Inhibitory activity per unit concentration/Activity % JAK3 (h). As for the experimental part: as §1

Where a chain is given by its changes, count along the chain named.

T2 sequence (Q06187 whole entry): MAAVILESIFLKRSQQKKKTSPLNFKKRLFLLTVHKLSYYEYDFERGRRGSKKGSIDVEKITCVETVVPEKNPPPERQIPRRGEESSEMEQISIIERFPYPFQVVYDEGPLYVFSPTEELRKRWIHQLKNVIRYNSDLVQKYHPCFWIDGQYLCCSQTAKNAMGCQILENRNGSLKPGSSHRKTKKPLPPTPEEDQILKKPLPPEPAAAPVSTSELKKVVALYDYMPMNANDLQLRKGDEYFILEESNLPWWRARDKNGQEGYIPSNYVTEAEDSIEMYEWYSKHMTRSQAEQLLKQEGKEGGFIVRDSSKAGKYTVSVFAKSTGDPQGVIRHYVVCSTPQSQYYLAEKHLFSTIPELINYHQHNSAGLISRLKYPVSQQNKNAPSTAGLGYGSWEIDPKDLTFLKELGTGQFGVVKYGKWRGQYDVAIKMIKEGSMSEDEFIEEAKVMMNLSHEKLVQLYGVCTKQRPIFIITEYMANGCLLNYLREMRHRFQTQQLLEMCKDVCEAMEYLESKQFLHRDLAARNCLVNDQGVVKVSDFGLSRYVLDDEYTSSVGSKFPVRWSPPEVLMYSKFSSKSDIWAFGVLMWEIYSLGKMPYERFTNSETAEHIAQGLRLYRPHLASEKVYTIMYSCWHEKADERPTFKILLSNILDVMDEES

In the case of `CC(C)(C)OC(=O)Nc1cc2cc(c1)Nc1nccc(n1)-c1cccc(c1)COCC=CCOC2`, the ring closure, yield of all isomers in series [1] amounted to 50%.

Regarding `O=C(/C=C/C(=O)N1CCCC1)Nc1cc2cc(c1)Nc1nccc(n1)-c1cccc(c1)COC/C=C/COC2` [XVI-33], the activity at 1 µM on Ab1 (h) turned out to be 38%; on BTK (h) it was 86%; at Flt3 (D835Y) (h), 10%; at Flt3 (h), 2%; on JAK3 (h), 17%.

`CN1C/C=C/COCc2cccc(c2)-c2ccnc(n2)Nc2cc(cc(NC(=O)/C=C/CN3CCCC3)c2)C1` [XVI-25]: the activity at 1 µM on Ab1 (h) came to 35%; on BTK (h) it was 64%; at Flt3 (D835Y) (h), 0%; at Flt3 (h), 6%; at JAK3 (h), 83%.
